From paper PMC4519256, “Expanding the Described Metabolome of the Marine Cyanobacterium Moorea producens JHB through Orthogonal Natural Products Workflows” (PLoS ONE, 2015)

Columns and labels:
[1] = system: human small cell lung cancer (NCI-H187) cell line; set-up: method as in PMID 15974628; conditions: cited from earlier work
actin = system: actin; set-up: method as in PMID 12088429; conditions: cited from earlier work
[2] = system: human carcinoma of the nasopharynx (KB) cell line; set-up: method as in PMID 15974628; conditions: cited from earlier work
sodium channel = conditions: at a concentration of 5 μM, Neuro-2a cells; cited from earlier work
[3] = system: veratridine-stimulated Ca2+ influx in neocortical neurons; experiment: Antagonism of veratridine-stimulated Ca2+ influx in neocortical neurons (fluo-3); format: cell-based, Swiss-Webster mice; conditions: for IC50: Neuron, primary mouse neocortical neurons, three-parameter logistic fit
Experimental: (§1) Primary cultures of neocortical neurons were obtained from embryonic day 16 Swiss-Webster mice as described elsewhere. Briefly, pregnant mice were euthanized by CO2 asphyxiation and embryos were removed under sterile conditions. Neocortices were collected, stripped of meninges, minced by trituration with a Pasteur pipette, and treated with trypsin for 25 min at 37°C. The cells were then dissociated by two successive trituration and sedimentation steps in soybean trypsin inhibitor and DNase containing isolation buffer, centrifuged, and resuspended in Eagle’s minimal essential medium with Earle’s salt (MEM) and supplemented with 1 mM L-glutamine, 10% fetal bovine serum, 10% horse serum, 100 IU/mL penicillin, and 0.10 mg/mL streptomycin (pH 7.4). Cells were plated onto poly-L-lysine-coated 96-well (9 mm), clear-bottomed, black-well culture plates (MidSci, St. Louis, USA) at a density of 1.5 × 10^5 cells/well. Cells were then incubated at 37°C in a 5% CO2 and 95% humidity atmosphere. The culture media was changed every other day, starting from day 5 in-vitro using a serum-free growth medium containing Neurobasal Medium supplemented with B-27, 100 IU/mL penicillin, 0.10 mg/mL streptomycin, and 0.2 mM L-glutamine. Neocortical cultures were used in experiments between 10–11 days in-vitro. All animal use protocols were approved by the Institutional Animal Care and Use Committee (IACUC) of Creighton University.
Cells grown in 96-well plates were used for determination of intracellular Ca^2+ concentration ([Ca^2+]i). Briefly, the growth medium was removed and replaced with dye-loading medium (100 μL per well) containing 4 μM fluo-3 AM and 0.04% pluronic acid in Locke's buffer. […] The cells were incubated in the presence or absence of jamaicamides for 5–7 minutes at 37°C in a 5% CO2 and 95% humidity atmosphere prior to transfer to a FLEX Station II (Molecular Devices) benchtop scanning fluorescence chamber. The fluorescence measurements were performed at 37°C. The cells were excited at 488 nm and Ca^2+-bound fluo-3 emission was recorded at 538 nm at 2 s intervals. After recording baseline fluorescence for 60 s, either vehicle or veratridine was added to each well at a rate of 26 μL/s; the fluorescence was then monitored for an additional 200 s.
(§2) The Fluo-3 and SBFI raw fluorescence emission data were exported to an Excel work sheet. The Fluo-3 fluorescence or SBFI fluorescence ratios (340/380) versus time were analyzed and concentration-response graphs generated using GraphPad Prism software (GraphPad Software Inc., San Diego, CA).

[4] = system: voltage-gated sodium channels; experiment: Antagonism of veratridine-stimulated Na+ influx in neocortical neurons (SBFI); format: cell-based, Swiss-Webster mice; conditions: for IC50: primary mouse neocortical neurons, three-parameter logistic fit
Experimental: as §1
[Na^+]i measurement and full in-situ calibration of sodium-binding benzofuran isophthalate (SBFI) fluorescence ratio were performed as described previously. Cells grown in 96-well plates were washed four times with Locke's buffer using an automated microplate washer (BioTek Instruments, Winooski, VT). After measuring the background fluorescence of each well, cells were incubated for 1 h at 37°C with dye-loading buffer (100 μL/well) containing 10 μM SBFI-AM (Invitrogen) and 0.02% Pluronic F-127 (Invitrogen). Cells were washed five times with Locke's buffer, leaving a final volume of 150 μL in each well. Jamaicamide addition and preincubation was as described above for Ca^2+ concentration determination. […] Fluorescence readings were taken once every 5 s for 60 s to establish the baseline, then either vehicle (control) or veratridine was added and fluorescence was monitored for an additional 260 s. After correcting for background fluorescence, SBFI fluorescence ratios (340/380) and concentration-response graphs were generated.
as §2

Compound | LD50 [1] [µM] | Effect on actin polymerization (actin) | LD50 [2] [µM] | Sodium channel blocking activity (sodium channel) | IC50 [3] [nM] | Potency relative to the other two jamaicamides tested (Ca2+ influx) ([3]; versus 3 and 12) | IC50 [4] [nM] | Potency relative to the other two jamaicamides as a sodium channel blocker (Na+ influx) ([4]; versus 3 and 12, neocortical neurons)
CC(=O)O[C@@H]1c2nc(cs2)C(=O)O[C@@H](CCCC(C)(Cl)Cl)[C@H](C)C(=O)O[C@@H](C(C)(C)O)c2nc(cs2)C(=O)OC1(C)C [compound 1, hectochlorin] | 1.20 | enhances actin polymerization | 0.86 |  |  |  |  | 
CO/C(=C/C(=O)N1C(=O)C=C[C@@H]1C)CCNC(=O)CC/C=C/C(C)CC/C(=C/Cl)CCCC#CBr (stereo partly drawn) [compound 2, jamaicamide A] |  |  |  | sodium channel blocking activity | 1820 | 2–3 times | 1100 | 2-3 times
C#CCCC/C(=C\Cl)CCC(C)/C=C/CCC(=O)NCC/C(=C\C(=O)N1C(=O)C=C[C@@H]1C)OC (stereo partly drawn) [compound 3, jamaicamide B] |  |  |  | sodium channel blocking activity | 6880 |  | 3600 | 
CC1C(=O)OC(C(C)(C)O)c2nc(cs2)C(=O)OC(C)(C)C(O)c2nc(cs2)C(=O)OC1CCCC(C)(Cl)Cl (stereo not drawn) [compound 5, Hectochlorin B] | 0.32 |  | 0.31 |  |  |  |  | 
COC(=CC(=O)N1C(=O)C=CC1C)CCNC(=O)CCC=CC(C)CCC(=CCl)CCCC#CI (stereo not drawn) [compound 12, jamaicamide F] |  |  |  |  | 4300 |  | 2300 | 
